Results on one compound are retold here after PMC9232612, “A phase 1b randomised controlled trial of a glucagon-like peptide-1 and glucagon receptor dual agonist IBI362 (LY3305677) in Chinese patients with type 2 diabetes” (Nature Communications, 2022).

What is called Tmax is the time from dosing to the highest level. What is called Cmax is the peak of the concentration-time curve.

Where two headings read alike, the source gives them in different places.

The nature of data set [1]: Immunogenicity: anti-IBI362 antibody (ADA) and neutralizing antibody. In kind it is in vivo, human. The text has this:
(§1) Standard non-compartmental pharmacokinetics methods were used to analyze IBI362 plasma concentration data using Pkanalix 2020R1 (Lixoft, Antony, France). Secondary efficacy outcomes included change from baseline to week 12 in HbA1c, fasting plasma glucose (FPG), fasting insulin levels, change from baseline to week 12 in post-mixed-meal tolerance test (post-MTT) glucose, insulin, C peptide, GLP-1 and OXM levels, as well as seven-point self-measured blood glucose (SMBG) profile.
(§2) Safety analyses were done in the safety population (defined as all patients who received at least one dose of the study treatment). Pharmacokinetic analyses were done in the pharmacokinetic population (defined as all patients who received at least one dose of IBI362 and had at least one valid plasma concentration assessment). Efficacy analyses were done in the efficacy population (defined as all patients who received at least one dose of the study treatment and had baseline and at least one post-baseline HbA1c assessment). Immunogenicity analyses were done in the immunogenicity population (defined as all patients who received at least one dose of the study treatment and had at least one post-baseline ADA result).
IBI362 Innovent Biologics (Suzhou) Co., Ltd. CIBI362A101
[…] Within 1 hour before D57 administration in Week 9; […]

The nature of data set [2]: Non-compartmental pharmacokinetics of IBI362 in plasma. Conditions: human, sc; for AUC(0-t): n=8, read-out: AUC0-168h, geometric mean (CV%); for Cmax: n=8, read-out: Cmax, geometric mean (CV%). In kind it is in vivo.
Text: as §1
as §2, with “result). […]” for “result).”
Table 3. PK/PD Sampling Schedule
sampling time hour hour hour hour 1 hour hour hour for
collection - - min min ± 30 mi 1h 2h 3h 4h 5h - ± 2h - min min - ± 2h - min min - - 2h 12h
Drug √ √ √ √ √ √ √ √ √ √ √ √ √ √ √
PK Sampling ● ● ● ● ● ● ● ● ● ● ● ● ● ● ● ● ● ● ● ● ● ● ●
1. PK sampling time points: Week 1 (intensive PK) PK sampling points: within 1 h before administration, 4 h ± 10 min, 8 h ± 20 min, 12 h ± 30 min, 24 h ± 1 h (Day 2), 48 h ± 2 h (Day 3), 72 h ± 3 h (Day 4), 96 h
± 4 h (Day 5), 120 h ± 5 h (Day 6) and within 1 h before administration on Day 8. Week 4: D22 for 48h ± 2h. Sparse sampling in Week 5: within 1 h before administration on Day 29, 4 h ± 10 min, 8 h ± 20 min after
administration and within 1 h before administration on Day 36. Week 8: D50 48h ± 2h. Sparse sampling in Week 9: within 1 h before administration on Day 57, 4 h ± 10 min, 8 h ± 20 min after administration and within
1 h before administration on Day 64. Sparse sampling at Week 12: Within 1h before administration, 48h ± 2h after administration (D80) and 168h ± 12h after administration (D85) on D78. If a patient fails to complete
the study and withdraws from the study prematurely, PK samples will be collected at early termination visit. Three (3) mL samples will be collected at each blood collection site and detailed procedures will be provided
in the central laboratory manual.
2. PD sampling (insulin/C-peptide/plasma glucose/glucagon/OXM/GLP-1) points: Week 1: within 48 hours ± 2 hours after dosing (Day 3), within 1 hour before dosing on Day 8; Week 5: within 1 hour before dosing
on Day 29; Week 9: within 1 hour before dosing on Day 57; Week 12: within 1 hour before dosing on D78 and 168 hours ± 12 hours after dosing (D85). PD samples will be collected at the early termination visit, if a
patient withdraw early due to failure to complete the study. All PD sampling will be performed in the fasted state. A total of 9 mL will be collected from each blood collection site, and the detailed operation process will
be described in the central laboratory manual.

The mark [3] stands for this setting: after the first dose (1.0 mg s.c.), 3.0 mg cohort.
Setting [4] is: after the first dose (1.5 mg s.c.), 4.5 mg cohort.
Setting [5] is: after the first dose (2.0 mg s.c.), 6.0 mg cohort.

On to `CC(C)C[C@H](NC(=O)[C@H](CC(C)C)NC(=O)[C@H](Cc1c[nH]c2ccccc12)NC(=O)[C@H](CCC(=O)O)NC(=O)[C@@H](NC(=O)[C@H](Cc1ccccc1)NC(=O)[C@H](CCC(=O)O)NC(=O)[C@H](CCCCNC(=O)COCCOCCNC(=O)COCCOCCNC(=O)CC[C@H](NC(=O)CCCCCCCCCCCCCCCCCCC(=O)O)C(=O)O)NC(=O)[C@H](C)NC(=O)[C@H](CCCCN)NC(=O)[C@H](CCCCN)NC(=O)[C@H](CCC(=O)O)NC(=O)[C@H](CC(=O)O)NC(=O)[C@H](CC(C)C)NC(=O)[C@H](Cc1ccc(O)cc1)NC(=O)[C@H](CCCCN)NC(=O)[C@H](CO)NC(=O)[C@H](Cc1ccc(O)cc1)NC(=O)[C@H](CC(=O)O)NC(=O)[C@H](CO)NC(=O)[C@@H](NC(=O)[C@H](Cc1ccccc1)NC(=O)[C@@H](NC(=O)CNC(=O)[C@H](CCC(N)=O)NC(=O)C(C)(C)NC(=O)[C@@H](N)Cc1c[nH]cn1)[C@@H](C)O)[C@@H](C)O)C(C)C)C(=O)N[C@@H](CCC(=O)O)C(=O)NCC(=O)NCC(=O)N1CCC[C@H]1C(=O)N[C@@H](CO)C(=O)N[C@@H](CO)C(=O)NCC(N)=O` [IBI362], for which the “patients who developed anti-IBI362 antibody” value in data set [1] (all IBI362 cohorts, n=24 (four patients)) amounted to 16.7%. In data set [1] (post-baseline samples), the neutralizing antibodies entry was “No neutralizing antibodies were detected”. The Tmax in data set [2] (after first s.c. dose, all IBI362 cohorts, n=24, read-out: median Tmax) was roughly 72 h; in data set [2] (after the first dose (1.0 mg s.c.), 3.0 mg cohort, n=8, read-out: Tmax, median (range)) it was 48.2 h; in data set [2] (after the first dose (1.5 mg s.c.), 4.5 mg cohort, n=8, read-out: Tmax, median (range)) it was 72.2 h; in data set [2] (after the first dose (2.0 mg s.c.), 6.0 mg cohort, n=8, read-out: Tmax, median (range)) it was 84 h. In addition, the AUC(0-t) amounted to 12300 ng·h/mL in data set [2] (setting [3]), 16500 ng·h/mL in data set [2] (setting [4]) and 22100 ng·h/mL in data set [2] (setting [5]). For the same compound, the Cmax in data set [2] (setting [3]) worked out at 89.5 ng/mL; in data set [2] (setting [4]), 109 ng/mL; in data set [2] (setting [5]) it was 170 ng/mL.
